Results taken from patent US20020110801A1, “A Method for screening compounds for the modulation of cognitive function” (priority 1998, published 2002).
Marks after values point to notes of the source that are not given here.

Experiments:
[1] = system: dendritic spine motility in hippocampal neurons expressing GFP-actin; type: cell-based, rat; conditions: for effect of NMDA receptor blockade on spine motility: antagonist alone; for influence on the inhibition of motility by AMPA: antagonist present with AMPA
Experimental: In this example it is shown that dendritic spine motility is inhibited by AMPA. To assess the influence of glutamate receptors on dendritic spine motility video recordings are made during which agonists and antagonists of ionotropic glutamate receptors are transiently applied to hippocampal neurons expressing GFP-actin. For example, such a recording is made from part of the dendrite of a GFP-actin expressing cell in a culture that is exposed to 200 nM AMPA. In initial titration experiments, AMPA is effective at concentrations as low as 50 nM. […] The striking extent of this motility blockade may be illustrated by video data. […] In order to exclude the effect being a consequence of indirect NMDA receptor activation, the experiment may be repeated in presence of the selective NMDA receptor antagonists APV and MK801. Data may be recorded for several spines on a single dendrite segment at high magnification so that the effect of AMPA on individual spines is visible. […] The results for APV are equivalent. Such frames are taken from a longer video recording encompassing a much larger area of this dendrite and several different drug combinations. […]
All reagents for cell culturing are obtained either from Life Technologies, Basel, Switzerland, or from Sigma Chemicals/Fluka Biochemicals, Buchs, Switzerland. Cultures of primary rat hippocampal neurons are established exactly according to Goslin and Banker (Rat hippocampal neurons in low-density culture, in Culturing Nerve Cells (Bradford Book, MIT Press, Cambridge, Mass., 1991) G. Banker and K. Goslin, eds.). Briefly, dissected hippocampi of E19 rat embryos are digested with 0.25% trypsin for 15 min at 37° C. and triturated to yield a single cell suspension using a narrow-bore pasteur pipet. Neurons are plated onto polylysine treated glass coverslips in Eagle's minimal essential medium supplemented with 10% horse serum. After a 4 hr incubation the coverslips are turned over onto confluent layers of primary astroglial feeder layers in chemically defined Eagle's minimal essential medium with N2 supplement. Over a time period of 3-4 weeks, neurons develop large networks of processes and eventually matured to carry synapses on dendritic spines.
For live imaging, coverslips are mounted in saline in closed observation chambers (Type 1, Life Imaging Services, Olten, Switzerland) and placed at 37° C. on a DM-IRBE inverted fluorescence microscope (Leica, Basel, Switzerland) equipped with high numerical aperture oil lenses and a GFP-optimized filter set (Chroma Technologies, Brattleboro, Vt., USA). […]
Drugs are either applied by gravity feed perfusion or by removing the chamber lid and adding the test substance. […] The pH is adjusted to 7.2. [NMDA and AMPA receptor activity is influenced by the extracellular concentration of protons (Kashiwagi et al., 1997; Saybasili et al., 1998; Mc Donald et al., 1998)]

[2] = system: distribution of GFP-actin fluorescence in hippocampal neurons; test: GFP-actin fluorescence intensity in successive video frames; type: cell-based, rat
Source text: In this example it is shown that AMPA treatment appears to involve a redistribution of spine actin. A further consistent consequence of treating hippocampal neurons with AMPA is a visible change in the distribution of GFP-actin fluorescence involving an apparent shift toward a concentration in the centre of the spine head. GFP-actin fluorescence intensity may be measured in successive frames of video recordings in which AMPA is transiently present. Measurements are made for a whole dendritic segment and within boxes of the same area placed in the center of spine heads or on the dendritic shaft, respectively. […] This phenomenon could reflect some general aspect of gfp fluorescence in response to an altered ion concentration or pH of the local cytoplasm. Fluorescence excitation of gfp in solution decreases at low pH. Therefore the observed decrease in brightness might be attributed to a lowered pH, mediated by glutamate receptor activation. Application of glutamate or Ca2+ ionophores to rat primary cultured hippocampal neurons is shown to induce a persistent acidosis. To account for this effect, data are normalized for single spines to the overall brightness of the dendrite. The average brightness from the boxes during the recordings for three randomly selected spines may then be evaluated. […] For above mentioned reasons, it is not entirely clear, if the apparent reduction in spine diameter is due to loss of actin fluorescence because of pH shifts or actin concentration in the center of spine heads, but comparison of phase and GFP-actin pictures argue in favour of changes in spine head size. The same caution has to apply to changes in the diameter of the spine neck, which have been postulated to influence synaptic weight by altering the electrical resistance. Those structures are extremely small and for a detailed analysis electronmicroscopic analysis would be favourable.

[3] = system: actin-based motility in dendritic spines; test: video time-lapse recording of dendritic spine motility (shape factor) in GFP-actin transfected hippocampal neurons, volatile anaesthetics; type: cell-based, rat; conditions: for Effective conc. for spine motility: calculated from concentration of saturated solution at 25° C. used as stock solution; for effect on spine shape change / spine motility in presence of the anaesthetic: clinically relevant concentrations in saline; for spine motility after the anaesthetic is removed: washout
Experimental: To examine the influence of volatile anaesthetics on spine motility their effects on live, cultured hippocampal neurons that have been transfected with green fluorescent protein-tagged actin (GFP-actin) to render their dendritic spines visible are studied.
The following example further illustrates the employment of an assay according to the invention. First, the shape of a dendritic spine on a rat hippocampal neuron in culture as visualized by GFP-actin enriched in the spine head is recorded about every 5 sec over a period of about 6 min prior to perfusion with isoflurane. Then the cells are slowly perfused with isoflurane at clinically relevant concentrations in saline. This step is followed by an additional time-lapse recording over about 6 min. Then a morphometric analysis of spine shape is done using the integrated morphometry analysis interface in Metamorph 3.0. In particular, the shape factor calculated from the perimeter and the area of the spine illustrates changes in spine shape.
All reagents for cell culturing are obtained either from Life Technologies, Basel, Switzerland, or from Sigma Chemicals/Fluka Biochemicals, Buchs, Switzerland. […] Neurons are plated onto polylysine treated glass coverslips in Eagle's minimal essential medium supplemented with 10% horse serum. After a 4 hr incubation the coverslips are turned over onto confluent layers of primary astroglial feeder layers in chemically defined Eagle's minimal essential medium with N2 supplement. Over a time period of 3-4 weeks, neurons develop large networks of processes and eventually matured to carry synapses on dendritic spines.
For live imaging, coverslips are mounted in saline in closed observation chambers (Type 1, Life Imaging Services, Olten, Switzerland) and placed at 37° C. on a DM-IRBE inverted fluorescence microscope (Leica, Basel, Switzerland) equipped with high numerical aperture oil lenses and a GFP-optimized filter set (Chroma Technologies, Brattleboro, Vt., USA).
Images are captured using a cooled CCD camera (Princeton Instruments, Trenton, N.J., USA) and MetaMorph Imaging Software version 3.0 (Universal Imaging Corporation, West Chester, Pa., USA). Anaesthetics are diluted from saturated solutions in saline into prewarmed saline immediately prior to slow perfusion into the closed observation chambers at a rate of approx. 0.5 ml/min for a total exchange of 5 ml volume.
For analysis of spine shape over time the integrated morphometric function of MetaMorph 3.0, in particular the shape factor of thresholded objects calculated from their perimeter and their area, is used to log the data for individual images directly to Microsoft Excel 97.

[4] = in phosphate-buffered saline; McKenzie et al. 1995; cited from earlier work
tadpoles = conditions: based on EC50 in tadpoles; read-out: Effective conc. for anesthesia; cited from earlier work
rats = conditions: based on minimal alveolar concentration (MAC) in rats; cited from earlier work
rat embryo fibroblasts = test: TPA-induced membrane ruffling, rhodamine-phalloidin staining of actin; type: cell-based; conditions: pretreatment of cells; 100 nM TPA 15 min
Source text: The results of these experiments on neurons pose the question of whether volatile anaesthetics act directly on actin in dendritic spines or indirectly through neurotransmitter receptors, which are also influenced by these agents at clinically relevant concentrations, or some other component of central synapses. To choose between these possibilities the influence of volatile anaesthetics on actin-based motility is examined in fibroblastic cells, where neurotransmitter receptors and other elements of the synaptic machinery are absent. […] Resting layers of rat embryo fibroblasts in saline are treated for 15 min with 100 nM TPA which induces membrane ruffling. Cells are fixed and stained with rhodamine-labelled phalloidin to visualize actin enrichment in ruffles at the edges of the cells. […]
For analysis of the actin cytoskeleton in REF52, cells plated on glass coverlips are serum-starved for several hours prior to the experiment. […] Cells are then fixed with 4% paraformaldehyde (Fluka Biochemicals, Buchs, Switzerland) in phosphate-buffered saline with 0.02% Triton X-100 (Fluka Biochemicals, Buchs, Switzerland) and […] rhodamine-labelled phalloidin F(Sigma Chemicals, Buchs, Switzerland) for 10 min at room temperature, rinsed in phosphate-buffered saline and mounted in Vectashield (Vector Laboratories, Burlingame, Calif., USA) for inspection on the fluorescence microscope.

pure actin = test: pyrene-actin fluorescence assay of actin filament assembly in vitro; type: biochemical; conditions: during assembly or added to pre-formed filaments
Experimental: Since actin-based motility in dendritic spines depends on the actin polymerization cycle the possible influence of isoflurane on actin filament assembly is tested in vitro using a well-established pyrene-actin fluorescence assay.

In the case of Cc1onc(OCC(=O)O)c1CC(N)C(=O)O (stereo not shown) [AMOA, 2-amino-3-[3-(carboxymethoxy)-5-methyl-isoxazol-4-yl]propionic acid], the “block of the effect of AMPA on spine motility” value ([1]; AMPA receptor antagonist applied with AMPA) is reported as “entirely blocked”.

For Cc1onc(O)c1CC(N)C(=O)O (stereo not drawn) [AMPA, α-amino-3-hydroxy-5-methylisoxazole-4-propionic acid], the “GFP-actin fluorescence intensity over the whole dendrite” value ([2]; after application of AMPA) was “decrease in intensity”, the “average brightness of the dendritic shaft” value ([2]; normalized to overall brightness of the dendrite) was “reduced” and the “GFP-actin fluorescence intensity in the centre of spine heads” value ([2]; three randomly selected spines, normalized to overall brightness of the dendrite) was “marked increase”. The “dendritic varicosities associated with subsequent cell death” value ([1]; 50 nM to 200 nM) was “do not produce dendritic varicosities”, the “reversibility of effect on spine motility” value ([1]; 50 nM to 200 nM) was “reversible” and the spine movement ([1]; 200 nM AMPA present) was “spine movement effectively ceases”. For the same compound, the “lowest effective concentration on spine motility” value ([1]; initial titration experiments) was 50 nM.

For N[C@@H](CCCP(=O)(O)O)C(=O)O [APV], the “effect of NMDA receptor blockade on spine motility” value [1] was “equivalent” and the “influence on the inhibition of motility by AMPA” value [1] was “equivalent”.

With ClC(Cl)Cl [Chloroform] the “Effective conc. for spine motility” value [3] was 1.33 mM, the “effect on spine shape change / spine motility in presence of the anaesthetic” value [3] was “variation in spine shape is minimal” and the “spine motility after the anaesthetic is removed” value [3] was “rapid changes in spine shape are resumed”. The “concentration of saturated solution” value [4] was 66000 µM and the EC50 (tadpoles) was 1.3 mM.

In the case of CCOCC [Diethylether, diethylether], the “Effective conc. for spine motility” value [3] is given as 20.4 mM, the “concentration of saturated solution” value [4] is given as 816000 µM and the EC50 (tadpoles) is given as 25 mM.

For FC(F)OC(F)(F)C(F)Cl (stereo not shown) [Enflurane], the “Effective conc. for anesthesia” value (rats) is given as 0.64^a mM, the “Effective conc. for spine motility” value [3] is given as 0.30 mM and the “concentration of saturated solution” value [4] is given as 11900 µM.

For FC(F)(F)C(Cl)Br (stereo not shown) [Halothane], the “Effective conc. for anesthesia” value (rats) is listed as 0.27^a mM and the “Effective conc. for spine motility” value [3] is listed as 0.23 mM.

For FC(F)OC(Cl)C(F)(F)F (stereo not shown) [Isoflurane], the “Effective conc. for anesthesia” value (rats) is given as 0.31^a mM, the TPA-induced actin ruffles (rat embryo fibroblasts) is given as “prevents TPA-induced actin ruffles” and the “effect on polymerization state of pure actin” value (pure actin) is given as “no detectable effect”. For the same compound, the “Effective conc. for spine motility” value [3] was 0.30 mM, the “effect on spine shape change / spine motility in presence of the anaesthetic” value [3] was “it remains constant” and the spine motility ([3]; dilution of 1:50 of saturated solution) was “fully inhibited”. The spine motility ([3]; dilution of 1:60 of saturated solution) was “fully motile”, the spine motility ([3]; dilution of 1:100 of saturated solution) was “fully motile” and the “spine motility after the anaesthetic is removed” value [3] was “recovery of motility”. The “concentration of saturated solution” value [4] was 15300 µM.

In the case of C=C(C)[C@H]1CN[C@H](C(=O)O)[C@H]1CC(=O)O [Kainate], the “mimics the effect of AMPA on spine motility” value [1] is reported as “mimicked”.

With C[C@]12N[C@H](Cc3ccccc31)c1ccccc12 [MK801] the “effect of NMDA receptor blockade on spine motility” value [1] was “does not inhibit spine motility” and the “influence on the inhibition of motility by AMPA” value [1] was “does not influence”.

In the case of COC(F)(F)C(Cl)Cl [methoxyflurane, Methoxyflurane], the “concentration of saturated solution” value [4] is listed as 9100 µM.
